Measurements taken from publication PMC10318527, “Utilization of dietary mixed-linkage β-glucans by the Firmicute Blautia producta” (The Journal of Biological Chemistry, 2023).
Like-named read-outs stand apart in the source and are kept apart here.

Key:
BpGH94MLG [1] = target: T1, BpGH94MLG (Blautia producta, UniProt A0A7G5MNS2); assay: Phosphorolysis activity of BpGH94MLG on substrates (TLC); format: biochemical, Blautia producta ATCC 27340; conditions: inorganic phosphate, 37 °C
T1 sequence (A0A7G5MNS2 1-804): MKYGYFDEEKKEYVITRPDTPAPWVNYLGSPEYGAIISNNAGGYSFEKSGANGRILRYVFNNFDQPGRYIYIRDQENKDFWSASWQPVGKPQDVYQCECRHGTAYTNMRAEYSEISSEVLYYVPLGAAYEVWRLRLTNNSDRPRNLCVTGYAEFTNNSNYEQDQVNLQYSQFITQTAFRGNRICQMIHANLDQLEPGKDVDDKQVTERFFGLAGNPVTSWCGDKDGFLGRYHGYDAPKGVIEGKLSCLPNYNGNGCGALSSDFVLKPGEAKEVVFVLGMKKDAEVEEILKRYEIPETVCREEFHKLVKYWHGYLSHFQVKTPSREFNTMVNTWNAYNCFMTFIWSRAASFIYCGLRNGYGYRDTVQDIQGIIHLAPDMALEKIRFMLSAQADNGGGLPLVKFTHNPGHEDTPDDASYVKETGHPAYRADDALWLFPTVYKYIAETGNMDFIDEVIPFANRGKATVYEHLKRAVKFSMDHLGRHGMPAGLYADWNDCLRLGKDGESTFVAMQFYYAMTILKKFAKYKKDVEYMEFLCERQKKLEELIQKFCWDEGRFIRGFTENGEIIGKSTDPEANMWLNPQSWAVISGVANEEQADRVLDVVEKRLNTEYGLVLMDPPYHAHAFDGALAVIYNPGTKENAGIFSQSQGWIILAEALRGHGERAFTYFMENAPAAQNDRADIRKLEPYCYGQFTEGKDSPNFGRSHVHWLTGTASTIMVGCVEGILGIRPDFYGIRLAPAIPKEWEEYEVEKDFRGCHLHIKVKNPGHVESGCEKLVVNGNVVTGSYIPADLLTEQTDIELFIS
Protocol: (§1) TLC was used for analyzing enzymatic actions. […] Kinetics parameters for BpGH94MLG were determined with G4G3G, G4G4G3G and cellotriose, following a p-hydroxybenzoic acid hydrazide (PAHBAH) reducing sugar assay ([69]).

Rt/CtCDP = system: Rt/CtCDP; set-up: method as in PMID 12153715; conditions: phosphorolytic reaction; cited from earlier work
BpGH16MLG = assay: Initial screening of BpGH16MLG against substrates (TLC); format: biochemical, Blautia producta ATCC 27340; conditions: pH 5.7, 37 °C, 2 h
Protocol: After the appropriate incubation time, the reaction was terminated by boiling (5 min), and generated oligosaccharides were analyzed by thin layer chromatography (TLC). Typically, 1 μl of the reaction mixture was used for TLC analysis. TLC analysis was performed on Silica Gel 60 F254 (Merck), and produced sugars were visualized by spraying TLC with 5% H2SO4 in ethanol, followed by heating.

BpSBPMLG = BpSBPMLG (Blautia producta, UniProt A0ABX6JB09); assay: Isothermal titration calorimetry of oligosaccharide binding to BpSBPMLG; set-up: species or system Blautia producta ATCC 27340; conditions: for -TΔS^0 / n (binding stoichiometry) / ΔG^0 / ΔH: ITC at 25 °C, 10 mM sodium phosphate pH 7.0
Protocol: The binding of β-(1,4), β-(1,3), and MLG-oligosaccharides to BpSBPMLG was measured at 25 °C in 10 mM sodium phosphate buffer (pH 7) using a MicroCal PEAQ-ITC (Malvern). The protein was extensively dialyzed against 10 mM sodium phosphate and all glycan ligands were also dissolved in the same buffer to minimize the heat of dilution. 13 injections of an oligosaccharide were titrated on BpSBPMLG present in the sample cell. Various preliminary titration setups were tried by changing amounts of protein (5–100 μM) and ligand (50 μM–10 mM) to get the best experimental conditions. Thermodynamic binding parameters [calculates binding affinity (Kd), stoichiometry (n), enthalpy (ΔH), Gibbs free energy change (ΔG), and entropy (ΔS)] were determined using the MicroCal PEAQ-ITC analysis software.

BpGH3-AR8MLG = BpGH3-AR8MLG (Blautia producta, UniProt A0ABX6J8C8); format: biochemical, Blautia producta ATCC 27340
Protocol: (§2) 150 μl of a freshly prepared 8:2 mixture of reagent A (50 mM sodium sulfite, 0.3 M 4-hydroxybenzhydrazide and 0.6 M HCl) and reagent B (50 mM trisodium citrate, 10 mM CaCl2, 0.5 M NaOH) were added to 50 μl sample. The reaction cocktail was boiled for 10 min at 100 °C. After the reaction was cooled down, the absorbance was recorded at 410 nm using the SpectraMax i3x multi-mode microplate reader. A calibration curve with different concentrations of glucose (0, 2, 4, 8, 16, 40, 80, 100, 200, 300, and 500 μM) was employed for each experiment to calculate the released amount of glucose (reducing end equivalents). The same samples were also used for control measurement, and the control value was subtracted from test reading prior to calculate kinetics parameters. In all cases, the Km, Vmax, and kcat were analyzed on GraphPad Prism. Three independent replicates were used for each test. TLC analyses were used for understanding the enzymatic degradation profiles of various oligosaccharides.

RaCDP = system: RaCDP; set-up: method as in PMID 23802549; conditions: phosphorolytic reaction; cited from earlier work
TaCDP = system: TaCDP; set-up: method as in PMID 28687766; conditions: phosphorolytic reaction; cited from earlier work
B. producta ATCC 27340 [2] = system: B. producta ATCC 27340; set-up: method as in PMID 33043794; conditions: cited from earlier work
BpGH16MLG (BPGH16) = assay: Michaelis-Menten kinetics of BpGH16MLG on β-glucans (DNS assay); format: biochemical, Blautia producta ATCC 27340; conditions: native BPGH16; DNS assay; pH 5.7, 37 °C
Protocol: Then, reactions were terminated by boiling for 5 min. Enzymatic assays were determined with 3,5- dinitrosalicylic acid (DNS) assay ([85]). In brief, 0.05 g Na2SO3 and 1 g DNS were mixed in a 50 ml water-containing reagent bottle and stirred about 6 h using a magnetic stirrer. After that, 200 μl phenol was added and made up to 100 ml. A working solution of DNS was prepared by adding 50 μl glucose (20% (w/v) stock) in prepared 100 ml of reagent mixtures and immediately used for experiments without adding NaOH. 80 μl DNS reagent was added to the reaction mixtures and incubated at 100 °C for 10 min, followed by ice-cooling for 10 min. Consequently, recorded the developed color spectrophotometrically at 575 nm ([85]). A standard curve generated by different concentrations of maltose was used for determining released reducing sugars in each case.

[3] = target: β-mannooligosaccharide binding protein of Roseburia; set-up: method as in PMID 30796211; conditions: cited from earlier work
BpGH3-X62MLG = target: T2, BpGH3-X62MLG (Blautia producta, UniProt A0ABX6JIM0); assay: Hydrolysis kinetics of BpGH3-X62MLG (PAHBAH assay, TLC); conditions: TLC
T2 sequence (A0ABX6JIM0 1-920): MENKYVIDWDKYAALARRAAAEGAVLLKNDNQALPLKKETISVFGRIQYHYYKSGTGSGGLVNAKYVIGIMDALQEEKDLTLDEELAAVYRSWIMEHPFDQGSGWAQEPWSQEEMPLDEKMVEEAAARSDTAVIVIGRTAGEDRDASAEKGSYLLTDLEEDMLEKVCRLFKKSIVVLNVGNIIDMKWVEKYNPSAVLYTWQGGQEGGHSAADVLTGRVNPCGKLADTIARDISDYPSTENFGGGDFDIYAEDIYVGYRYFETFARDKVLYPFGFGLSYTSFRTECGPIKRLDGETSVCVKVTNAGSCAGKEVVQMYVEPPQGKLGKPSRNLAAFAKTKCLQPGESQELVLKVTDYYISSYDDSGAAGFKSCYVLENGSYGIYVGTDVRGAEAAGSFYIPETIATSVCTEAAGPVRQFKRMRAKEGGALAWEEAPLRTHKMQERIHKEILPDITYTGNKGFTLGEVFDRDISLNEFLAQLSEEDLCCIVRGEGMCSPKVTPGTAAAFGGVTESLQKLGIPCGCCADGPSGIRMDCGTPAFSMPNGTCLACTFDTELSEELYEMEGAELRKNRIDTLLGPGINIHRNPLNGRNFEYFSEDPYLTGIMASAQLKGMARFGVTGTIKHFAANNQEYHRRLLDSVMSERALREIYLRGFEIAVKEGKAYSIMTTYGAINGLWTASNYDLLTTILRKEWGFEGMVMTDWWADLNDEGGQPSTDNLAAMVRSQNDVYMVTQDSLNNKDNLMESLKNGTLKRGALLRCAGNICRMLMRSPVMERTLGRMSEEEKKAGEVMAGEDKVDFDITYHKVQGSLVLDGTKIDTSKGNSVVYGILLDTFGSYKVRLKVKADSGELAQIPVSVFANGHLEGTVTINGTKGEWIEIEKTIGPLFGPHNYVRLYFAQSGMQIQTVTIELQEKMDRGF
Protocol: as §2

BpGH94MLG [4] = target: T1, BpGH94MLG; assay: Phosphorolysis kinetics of BpGH94MLG (PAHBAH assay); format: biochemical, Blautia producta ATCC 27340
Protocol: as §1

B. producta ATCC 27340 [5] = assay: Growth of B. producta on β-glucans; format: cell-based, Blautia producta ATCC 27340; conditions: minimal medium containing 1% glucan
Protocol: Active culture of B. producta and culture conditions were maintained following the recently reported procedure ([31]). Once B. producta grew, cells were centrifuged, and the obtained supernatant was decanted. A pellet of cells was then washed three times with phosphate-buffered saline (PBS) and washed cells were suspended in 2 ml PBS. […] The growth assessment experiments were performed for 96 h, following our recently established protocol ([82]).

[6] = PAHBAH assay, 100 mM HEPES pH 6.5, 37 °C

Chain of BpSBPMLG (A0ABX6JB09 entry or part of it): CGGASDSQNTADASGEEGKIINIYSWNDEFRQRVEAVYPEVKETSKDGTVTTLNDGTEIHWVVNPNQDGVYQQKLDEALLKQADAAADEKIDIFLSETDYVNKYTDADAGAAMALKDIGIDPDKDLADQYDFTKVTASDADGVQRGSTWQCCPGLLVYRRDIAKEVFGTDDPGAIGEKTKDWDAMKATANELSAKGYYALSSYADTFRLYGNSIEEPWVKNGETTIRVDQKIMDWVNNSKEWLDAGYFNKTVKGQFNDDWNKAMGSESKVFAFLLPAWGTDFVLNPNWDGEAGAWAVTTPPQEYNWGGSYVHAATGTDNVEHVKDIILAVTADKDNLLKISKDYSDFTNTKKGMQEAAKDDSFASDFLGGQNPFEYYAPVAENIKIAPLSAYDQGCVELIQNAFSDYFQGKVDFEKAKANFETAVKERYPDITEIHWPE
Chain of BpGH3-AR8MLG (A0ABX6J8C8 entry or part of it): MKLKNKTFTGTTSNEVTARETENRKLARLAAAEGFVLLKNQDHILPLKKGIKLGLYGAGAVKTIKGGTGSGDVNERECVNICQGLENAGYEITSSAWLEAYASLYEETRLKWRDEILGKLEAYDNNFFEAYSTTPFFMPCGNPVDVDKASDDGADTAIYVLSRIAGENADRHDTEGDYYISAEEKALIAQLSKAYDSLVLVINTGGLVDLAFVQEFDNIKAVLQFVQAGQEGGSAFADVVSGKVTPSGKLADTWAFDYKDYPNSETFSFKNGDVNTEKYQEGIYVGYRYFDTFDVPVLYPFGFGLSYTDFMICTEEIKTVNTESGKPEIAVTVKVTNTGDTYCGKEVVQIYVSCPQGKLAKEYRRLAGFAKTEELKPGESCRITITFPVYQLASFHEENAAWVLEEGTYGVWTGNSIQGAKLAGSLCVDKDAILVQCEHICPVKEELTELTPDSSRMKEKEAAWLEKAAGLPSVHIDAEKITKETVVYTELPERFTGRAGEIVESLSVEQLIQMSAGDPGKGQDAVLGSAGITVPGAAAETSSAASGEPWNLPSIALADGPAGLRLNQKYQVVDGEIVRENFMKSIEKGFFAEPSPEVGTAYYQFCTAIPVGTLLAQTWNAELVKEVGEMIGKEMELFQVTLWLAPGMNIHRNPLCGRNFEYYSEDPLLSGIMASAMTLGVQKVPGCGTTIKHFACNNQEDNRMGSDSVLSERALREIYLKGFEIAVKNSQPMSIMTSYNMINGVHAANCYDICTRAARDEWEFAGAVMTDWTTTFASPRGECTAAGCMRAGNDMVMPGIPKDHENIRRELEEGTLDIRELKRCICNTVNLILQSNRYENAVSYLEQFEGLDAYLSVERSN

Molecule | phosphorolysis activity of BpGH94MLG (in words) (BpGH94MLG [1]) | activity of BpGH16MLG on substrate (initial screening) (BpGH16MLG) | Kd (BpSBPMLG) | -TΔS^0 (BpSBPMLG) | n (binding stoichiometry) (BpSBPMLG) | ΔG^0 (BpSBPMLG) | ΔH (BpSBPMLG) | Km (BpGH16MLG (BPGH16)) | kcat (BpGH16MLG (BPGH16)) | other results
OC[C@H]1O[C@@H](O[C@H]2[C@H](O)[C@@H](O)[C@H](O[C@H]3[C@H](O)[C@@H](O)C(O)O[C@@H]3CO)O[C@@H]2CO)[C@H](O)[C@@H](O)[C@@H]1O (stereo partly drawn) [Cellotriose] | cleaved | did not show activity | 1740 nM | 0.8 kcal/mol | 0.77 ± 0.02 | -7.9 kcal/mol | -7.1 ± 0.31 kcal/mol |  |  | Km (Rt/CtCDP): 810 µM; kcat (Rt/CtCDP): 4 s⁻¹; Km (BpGH3-AR8MLG; [6]): 260 ± 30 µM; kcat (BpGH3-AR8MLG; [6]): 15 ± 0.2 s⁻¹; Km (RaCDP): 6060 µM; kcat (RaCDP): 76.2 s⁻¹; Km (TaCDP): 94 µM; kcat (TaCDP): 0.28 s⁻¹
Laminarin |  | did cleave |  |  |  |  |  | 0.24 ± 0.03 mg/mL | 43 ± 0.6 s⁻¹ | growth of B. producta on the glucan (B. producta ATCC 27340 [2]): does not support the growth
OC[C@H]1O[C@@H](O[C@H]2[C@H](O)[C@H](O)[C@H](O[C@H]3[C@H](O)[C@H](O)[C@H](O[C@H]4[C@H](O)[C@H](O)C(O)O[C@@H]4CO)O[C@@H]3CO)O[C@@H]2CO)[C@@H](O)[C@@H](O)[C@@H]1O (stereo partly drawn) [mannotetraose] |  |  |  |  |  |  |  |  |  | Kd [3]: 3890 nM
OC[C@H]1O[C@@H](O[C@H]2[C@H](O)[C@@H](O)[C@H](O[C@H]3[C@H](O)[C@@H](CO)OC(O)[C@@H]3O)O[C@@H]2CO)[C@H](O)[C@@H](O)[C@@H]1O (stereo partly drawn) [G4G3G, Glc-β-1-4-Glc-β-1-3-Glc] | cleaved |  | 1010 nM | 4.4 kcal/mol | 0.42 ± 0.01 | -8.18 kcal/mol | -12.6 ± 0.32 kcal/mol |  |  | cleavage by BpGH3-X62MLG (in words) (BpGH3-X62MLG): cleaved; Km lower compared to cellotriose (BpGH94MLG [4]): about 1.85 fold; cleavage by BpGH3-AR8MLG (in words) (BpGH3-AR8MLG; TLC): cleaved
Lichenan |  | did cleave |  |  |  |  |  | 0.13 ± 0.02 mg/mL | 36 ± 0.5 s⁻¹ | growth of B. producta on the glucan (B. producta ATCC 27340 [5]): able to grow
